# Columns and labels:
# Format in all cases: physicochemical
# [1] = Stability of NRTOCl and NRCl in DI water at 35° C. for 28 days (released nicotinamide by HPLC)
# Description: Although NRTOCl is a quaternary ammonium salt, it was not dissolved in water due to the existence of three groups of oleate fatty ester in its structure. Therefore, for the stability study of NRTOCl, this compound was dispersed in DI water using 1% ethanol as a cosolvent. For this purpose, 15 mg of NRTOCl was dissolved in 0.15 ml of ethanol (1%) and then 14.85 ml of DI water was added to the mixture and gently shaken. […] Although the average size of NRTOCl in this sample was 192 nm, the images of TEM disclosed smaller particles with around 50 nm and oval and spherical shapes with aspect ratio close to unity (FIGS. 10A-10C). In the nanoparticles, the NRTOCl structures are stacked on top of each other layer-by-layer. The highly positive charge of NRTO makes the nanoparticles stable in the aqueous phase. After dispersion of NRTOCl in DI water, NRCl was dissolved in DI water, and the stability of these samples were studied at 35° C. for 28 days (FIG. 11). The concentration of each sample was 1000 ppm. As during the hydrolysis reaction of NRTO and NR, both of these compounds released nicotinamide (FIG. 12), and by measuring the released amount of nicotinamide in each sample with HPLC, the remaining amounts of NRTO and NR in each sample were calculated. During this study, any release of NR from NRTO sample was not detected. It signifies that the heavy ester groups in NRTO sample are not hydrolyzed during the time of stability study. Because this study was performed in DI water and the conditions were mild, the NRTO was hydrolyzed from its N-glycoside bond.
# [2] = Hydrolysis stability of NRTOCl and NRCl oil-in-water emulsions and NRCl in water at 35° C. for 26 days; details: 35° C., 26 days; for times more stable than NR(Cl) in emulsion: canola oil-in-water emulsion with sodium caseinate
# Description: The emulsion was prepared using 480 mg of oil stock containing 15 wt. % NRTOCl in canola oil and an aqueous phase (14.52 g) of Na-caseinate (2 wt. %), KCl (0.3 wt. %), NaCl (0.1 wt. %), CaCl2 (0.2 wt. %) and NaN3 (0.01 wt. %).
# The emulsion was-prepared using 480 mg of oil stock containing 15 wt. % NRTOCl in canola oil and 0.025 g of lecithin. The aqueous phase (14.5 g) contained Na-caseinate (2 wt. %), KC (0.3 wt. %), NaCl (0.1 wt. %), CaCl2 (0.2 wt. %) and NaN3 (0.01 wt. %).
# The emulsion was-prepared using 480 mg of oil stock containing 15 wt. % NRTOCl in canola oil and an aqueous phase (14.52 g) of polysorbate 80 (Tween 80) (2 wt. %).
# The emulsion was prepared using around 480 mg of canola oil in an aqueous phase (14.52 g) of NRCl (19 mg), Na-caseinate (2 wt. %), KCl (0.3 wt. %), NaCl (0.1 wt. %), CaCl2 (0.2 wt. %) and NaN3 (0.01 wt. %).
# After each specific time of stability for NRTOCl and NRCl emulsions, 1.5 mL of each emulsion was centrifuged (14,000 rpm) for 20 minutes at room temperature.
# Since NRTOCl is a very hydrophobic compound, to evaluate its stability in oil phase, an emulsion system was used to study the stability of NRTOCl as a function of time. For this purpose, a 15% w/w solution of NRTOCl in canola oil was used for making different emulsions with Na-caseinate, Tween 80 and lecithin as the emulsifiers (2 wt. %) at room temperature.
# When Na-caseinate was used as an emulsifier, the aqueous phase must be a solution of NaCl (0.1 wt. %), CaCl2 (0.2 wt. %) and KCl (0.3 wt. %) because caseinate anion with minus charge and NRTO with positive charge immediately aggregated in DI water. The total oil phase in these emulsions were 3.2 wt. %, and the concentration of NRTOCl in total volume of each emulsion (15 mL) was 4.4 mM. In the emulsions that used Na-caseinate as an emulsifier, NaN3 (0.01 wt. %) was added to prevent the growth of bacteria. When the NRTOCl emulsion was made by 2 wt. % Na-caseinate, its average size and zeta potential in this emulsion (Cas emulsion) were 1020 nm and −14.4 mV respectively.
# After making NRTOCl emulsions, a NRCl in canola oil-in-water emulsion was attempted as a control experiment using 3.2% canola oil. The aqueous phase was a solution of Na-caseinate (2 wt. %), NaCl (0.1 wt. %), CaCl2 (0.2 wt. %), KCl (0.3 wt. %) and NaN3 (0.01 wt. %). The concentration of NRCl in total volume (15 mL) of this emulsion was 4.4 mM. Moreover, 15 mL of NRCl solution in DI water was prepared with 4.4 mM concentration as the other control experiment. After preparing three NRTOCl emulsions and two control experiment samples, hydrolysis stability of each sample was studied at 35° C. for 26 days (FIG. 14). The rate of degradation was measured by determination of the released nicotinamide from each sample. […]
# [3] = Hydrolysis stability of NRTOCl emulsions and NRCl in water at room temperature for 42 days
# Description: After each specific time of stability for NRTOCl and NRCl emulsions, 1.5 mL of each emulsion was centrifuged (14,000 rpm) for 20 minutes at room temperature. […] However, during this time of stability study, 52.0% NR was intact in water at room temperature. […] During this time, these emulsions were stable without visible phase separation. A little increase in the average size of the NRTO droplets occurred in these emulsions, so that in Cas emulsion, the average size increased from 1020 nm to 1281 nm, and in Cas-Lec emulsion, this parameter increased from 1012 nm to 1106 nm.
structure (smiles),measurement,setting,value
"CCCCCCCC/C=C\CCCCCCCC(=O)OC[C@H]1O[C@@H]([n+]2cccc(C(N)=O)c2)[C@H](OC(=O)CCCCCCC/C=C\CCCCCCCC)[C@@H]1OC(=O)CCCCCCC/C=C\CCCCCCCC.[Cl-] [NRTOCl, nicotinamide riboside trioleates chloride]",release of NR from NRTO sample (ester hydrolysis) during stability study,[1]; DI water,not detected
same,remaining amount after 28 days,"[1]; DI water, 1000 ppm, 28 days",53.3%
same,times more stable than NRCl in water,[1]; 28 days,88 times
same,times more stable than NRCl in water,"[1]; 28 days, listed as NRTO",more than 88 times
same,times more stable than NR(Cl) in emulsion,[2],213 times
same,times more stable than NR(Cl) in emulsion,[2]; listed as NRTO,about 213 times
same,remaining amount after 26 days in emulsion,"[2]; canola oil-in-water emulsion, 4.4 mM",93.7%
same,released NR from NRTO (hydrolysis of ester groups),[3]; all NRTO stability conditions,no released NR
same,hydrolysis of NRTO after 42 days,"[3]; canola oil-in-water emulsion (sodium caseinate), room temperature, 42 days",5%

# Source: US20240424010A1, “NICOTINAMIDE RIBOSIDE TRIOLEATES CHLORIDE, COMPOSITIONS CONTAINING THIS COMPOUND, AND METHODS OF MAKING AND USING THIS COMPOUND” (SOCIETE DES PRODUITS NESTLE S.A., priority 2021, published 2024)
